# Results published in patent publication US12226374B2, “Compositions comprising quinone and/or quinol and methods of preparations and use thereof” (American River Nutrition, LLC, priority 2019, dated 2025).
# Legend:
# Assay type in all cases: physicochemical
# [1] = Stability of CoQ10 at elevated temperatures in CoQ:AP:GG mixture (HPLC)
# Experimental: (§1) The weight ratios of CoQone to CoQnol in the mixture were determined by HPLC using a modified method disclosed by Mattila (Mattila et al., 2000), which is incorporated by reference in its entirety. Samples were extracted from the mixing vessel under inert gas flush and the mixing vessel was then flushed with inert gas prior to resealing. Samples were dissolved in chloroform and then analyzed on a Waters Symmetry C18 column (5 μm, 4.6×250 mm) at about 35° C. The mobile phase (1.8 mL/min) was methanol:ethanol:2-propanol (53:25:22) with UV detection at 275 nm for CoQone and 290 nm for CoQnol. The retention times were about 5.7 min for CoQnol and about 8.8 min for CoQone, respectively. The HPLC method described herein was utilized in subsequent examples.
# GG was added to an appropriately sized mixing vessel and heated to about 52° C. (±3°) while stirring. CoQone was added to the mixing vessel with GG to form a mixture. The mixture was stirred at about 52° C. (±3°) until CoQone was completely melted and solubilized in GG to attain a translucent solution. Then AP was added to the translucent solution, which was stirred until no visible dry AP was left on the surface. […] This mixture was then mixed at elevated temperature for 10 days with periodic flushing of neutral, non-oxygenated gas where the CoQnol conversion rate and the total amount of CoQ (both CoQnol and CoQone) were monitored.
# [2] = CoQone solubilized in GG as binary mixture: dissolution and degradation; conditions: CoQone about 25% / GG about 75%
# Experimental: as §1
# GG was added to an appropriately sized mixing vessel and heated to about 52° C. (±3°) while stirring. CoQone was added to the mixing vessel with GG to form a mixture. The mixture was stirred at about 52° C. (±3°) until CoQone was completely melted and solubilized in GG to attain a translucent solution. The mixing vessel was then flushed with a neutral, non-oxygenated gas until atmospheric air was displaced and the mixing vessel was sealed airtight. This mixture was then mixed for several days.
# [3] = CoQone mixed directly with AP (binary mixture) at elevated temperature: total CoQ degradation; conditions: about 75° C., about 3 days
# Experimental: as §1
# CoQone was added to an appropriately sized mixing vessel and melted at about 52° C. (±3°) while stirring. AP was added to the mixing vessel with CoQone to form a mixture. The mixture was gently stirred at about 52° C. (±3°) until no apparent dry AP was visible. The mixing vessel was then flushed with a neutral, non-oxygenated gas until atmospheric air was displaced and the mixing vessel was sealed airtight. This mixture was then mixed at elevated temperature for several days with periodic flushing of inert gas with the CoQone to CoQnol conversion rate being monitored.
# [4] = Headspace comparison of inert gases (nitrogen vs argon): total CoQ10 loss; conditions: CoQ10:AP:GG about 4:2:4, about 52° C., about 6-7 days
# Experimental: as §1
# CoQ10, AP, and GG are provided in the weight ratio of about 4:2:4. The three components were placed in a mixing vessel kept stirred at about 52° C. (±3°). The mixing vessel was flushed with a neutral, non-oxygenated gas until atmospheric air was displaced entirely by Nitrogen […] or Argon (Ar) and sealed airtight. This mixture was then stirred at elevated temperatures for about 6-7 days until the target CoQnol conversion rate was reached.
# [5] = Manufacture production batch (20 kg) and softgels: total CoQ loss and stability; conditions: 20 kg CoQone:AP:GG batch, argon, about 52° C., about six days
# Experimental: A manufacture batch was run according the preparation methods set forth in Example 1 with the following modifications. The total amount of CoQone:AP:GG mixtures was 20 kg. Argon was used to flush the mixing vessel until the atmospheric air was displaced. After the mixing vessel was sealed air-tight, this mixture of CoQone:AP:GG was then stirred at about 52° C. (±2°) for about six days with periodic flushing of Argon for about every 24 hours.
# The final composition in the sealed vessel was placed in a hopper for the encapsulation process in a softgel assembly line. The finished softgels were analyzed to determine that the weight percentage of CoQnol in total amount of CoQnol and CoQone is about 93%. […] Softgels are hermetically sealed and the contents within the softgels are expected to be stable for at least about 2 years.
smiles,measurement,setting,value
COC1=C(OC)C(=O)C(C/C=C(\C)CC/C=C(\C)CC/C=C(\C)CC/C=C(\C)CC/C=C(\C)CC/C=C(\C)CC/C=C(\C)CC/C=C(\C)CC/C=C(\C)CCC=C(C)C)=C(C)C1=O [CoQ10],loss of total CoQ10,"[1]; about 3-5 days at about 50-55° C., initial ratio CoQ:AP:GG 1:1:1",less than 5%
same,loss of total CoQ (both CoQone and CoQnol),"[1]; about 8-10 days at about 50-55° C., fixed initial ratio CoQ:AP:GG about 1:1:1, inert gas with periodic flushing",about 15%
same,dissolution of CoQ10 in GG,[2]; about 52° C.,completely dissolved
same,degradation of CoQ,"[2]; after about 3 weeks, inert gas",nor was there any degradation
same,total CoQ10 degraded,[3],about 21%
same,total loss of CoQ10,[4]; argon-filled headspace,less than 0.5%
same,total CoQ10 loss,[4]; nitrogen-filled headspace,about 7%
same,loss of the total CoQ,[5],without any measurable loss
